# Data reported in patent publication EP0255100A2, “Use of trimetrexate and its salts for the preparation of pharmaceutical compositions for treating infections of the mycobacterium-avium-intracellulare complex” (WARNER-LAMBERT COMPANY, priority 1986, dated 1988).
# Read-outs that look alike come from different tables or passages of the source.
# Assays:
# [1] = tested on: Mycobacterium avium-intracellulare complex; test: radiometric assay (14CO2 release from 14C palmitic acid in 7H12 medium, BACTEC 460), percent microorganism killed; format: cell-based; conditions: for killing at 16 µg/mL: Mycobacterium avium-intracellulare, 168 h, read-out: Percent Microorganism Killed One Week Post
# [2] = tested on: Mycobacterium avium-intracellulare complex; test: minimal inhibitory concentration by the standard T100 growth inhibition method; format: cell-based
# Description: The activity of trimetrexate at several concentrations ranging from 2 to 64 micrograms/ml was tested against fifteen strains of Mycobacterium avium-intracellulare isolated from AIDS patients who were also suffering from infections of the MAI complex. Drug activity was measured using both a radiometric assay and growth inhibition analysis by the T100 method. (S.H. Siddiqi et al., J. Clin. Microbiol., 22: 919-923 (1985); S.H. Siddiqi et al., J. Clin. Microbiol., 13: 908-912 (1981); and D.E. Snyder et al., Am. Rev. Respir. Dis., 123: 402-406 (1981).
# In a second test, the minimal inhibitory concentration (MIC) required to inhibit 99% and 99.9% growth of the test strains of the Mycobacterium avium-intracellulare complex was determined employing the standard T100 method. The results appear in Table II where the MIC value is given for each of the tested MAI complex strains.
# [3] = MAI Complex Strain 109, trimetrexate 16 µg/ml
structure (smiles),measurement,setting,value
"COc1cc(NCc2ccc3nc(N)nc(N)c3c2C)cc(OC)c1OC [trimetrexate, 5-methyl-6-{[(3,4,5-trimethoxyphenyl)amino]methyl}-2-4-quinazolinediamine]",Percent Microorganism Killed One Week Post,[1]; [3],42%
same,killing at 16 µg/mL,"[1]; MAI Complex Strain 100, trimetrexate 16 µg/ml",65%
same,killing at 16 µg/mL,"[1]; MAI Complex Strain 101, trimetrexate 16 µg/ml",68%
same,killing at 16 µg/mL,"[1]; MAI Complex Strain 108, trimetrexate 16 µg/ml",70%
same,killing at 16 µg/mL,[1]; [3],42%
same,killing at 16 µg/mL,"[1]; MAI Complex Strain 116, trimetrexate 16 µg/ml",91%
same,bactericidal activity,"[1]; all strains of the MAI complex tested, trimetrexate 16 µg/ml alone",potent bactericidal activity
same,MIC,"[2]; MAI Complex Strain 100, 99% growth inhibition, read-out: Approximate Minimal Inhibitory Concentration (MIC) 99%",2 µg/mL
same,MIC,"[2]; MAI Complex Strain 100, 99.9% growth inhibition, read-out: Approximate Minimal Inhibitory Concentration (MIC) 99.9%",2 µg/mL
same,MIC,"[2]; MAI Complex Strain 101, 99% growth inhibition, read-out: Approximate Minimal Inhibitory Concentration (MIC) 99%",4 µg/mL
same,MIC,"[2]; MAI Complex Strain 101, 99.9% growth inhibition, read-out: Approximate Minimal Inhibitory Concentration (MIC) 99.9%",4 µg/mL
same,MIC,"[2]; MAI Complex Strain 102, 99% growth inhibition, read-out: Approximate Minimal Inhibitory Concentration (MIC) 99%",8 µg/mL
same,MIC,"[2]; MAI Complex Strain 102, 99.9% growth inhibition, read-out: Approximate Minimal Inhibitory Concentration (MIC) 99.9%",8 µg/mL
same,MIC,"[2]; MAI Complex Strain 103, 99% growth inhibition, read-out: Approximate Minimal Inhibitory Concentration (MIC) 99%",2 µg/mL
same,MIC,"[2]; MAI Complex Strain 103, 99.9% growth inhibition, read-out: Approximate Minimal Inhibitory Concentration (MIC) 99.9%",2 µg/mL
same,MIC,"[2]; MAI Complex Strain 104, 99% growth inhibition, read-out: Approximate Minimal Inhibitory Concentration (MIC) 99%",2 µg/mL
same,MIC,"[2]; MAI Complex Strain 104, 99.9% growth inhibition, read-out: Approximate Minimal Inhibitory Concentration (MIC) 99.9%",2 µg/mL
same,MIC,"[2]; MAI Complex Strain 105, 99% growth inhibition, read-out: Approximate Minimal Inhibitory Concentration (MIC) 99%",2 µg/mL
same,MIC,"[2]; MAI Complex Strain 105, 99.9% growth inhibition, read-out: Approximate Minimal Inhibitory Concentration (MIC) 99.9%",2 µg/mL
same,MIC,"[2]; MAI Complex Strain 107, 99% growth inhibition, read-out: Approximate Minimal Inhibitory Concentration (MIC) 99%",2 µg/mL
same,MIC,"[2]; MAI Complex Strain 107, 99.9% growth inhibition, read-out: Approximate Minimal Inhibitory Concentration (MIC) 99.9%",2 µg/mL
same,MIC,"[2]; MAI Complex Strain 108, 99% growth inhibition, read-out: Approximate Minimal Inhibitory Concentration (MIC) 99%",2 µg/mL
same,MIC,"[2]; MAI Complex Strain 108, 99.9% growth inhibition, read-out: Approximate Minimal Inhibitory Concentration (MIC) 99.9%",2 µg/mL
same,MIC,"[2]; MAI Complex Strain 109, 99% growth inhibition, read-out: Approximate Minimal Inhibitory Concentration (MIC) 99%",2 µg/mL
same,MIC,"[2]; MAI Complex Strain 109, 99.9% growth inhibition, read-out: Approximate Minimal Inhibitory Concentration (MIC) 99.9%",2 µg/mL
same,MIC,"[2]; MAI Complex Strain 110, 99% growth inhibition, read-out: Approximate Minimal Inhibitory Concentration (MIC) 99%",2 µg/mL
same,MIC,"[2]; MAI Complex Strain 110, 99.9% growth inhibition, read-out: Approximate Minimal Inhibitory Concentration (MIC) 99.9%",2 µg/mL
same,MIC,"[2]; MAI Complex Strain 111, 99% growth inhibition, read-out: Approximate Minimal Inhibitory Concentration (MIC) 99%",2 µg/mL
same,MIC,"[2]; MAI Complex Strain 111, 99.9% growth inhibition, read-out: Approximate Minimal Inhibitory Concentration (MIC) 99.9%",2 µg/mL
same,MIC,"[2]; MAI Complex Strain 113, 99% growth inhibition, read-out: Approximate Minimal Inhibitory Concentration (MIC) 99%",2 µg/mL
same,MIC,"[2]; MAI Complex Strain 113, 99.9% growth inhibition, read-out: Approximate Minimal Inhibitory Concentration (MIC) 99.9%",2 µg/mL
same,MIC,"[2]; MAI Complex Strain 116, 99% growth inhibition, read-out: Approximate Minimal Inhibitory Concentration (MIC) 99%",2 µg/mL
same,MIC,"[2]; MAI Complex Strain 116, 99.9% growth inhibition, read-out: Approximate Minimal Inhibitory Concentration (MIC) 99.9%",2 µg/mL
same,MIC,"[2]; MAI Complex Strain 117, 99% growth inhibition, read-out: Approximate Minimal Inhibitory Concentration (MIC) 99%",2 µg/mL
same,MIC,"[2]; MAI Complex Strain 117, 99.9% growth inhibition, read-out: Approximate Minimal Inhibitory Concentration (MIC) 99.9%",2 µg/mL
same,MIC,"[2]; MAI Complex Strain 128, 99% growth inhibition, read-out: Approximate Minimal Inhibitory Concentration (MIC) 99%",2 µg/mL
same,MIC,"[2]; MAI Complex Strain 128, 99.9% growth inhibition, read-out: Approximate Minimal Inhibitory Concentration (MIC) 99.9%",2 µg/mL
same,MIC,"[2]; every strain of the MAI complex tested (summary of Table II), read-out: concentration exhibiting inhibitory activity",≤ 8 µg/mL
